Reference: patent US8618301B2, “5-phenylpyrazolopyridine derivatives, preparation and therapeutic use thereof” (Sanofi, priority 2009, dated 2013)

Columns and labels:
mouse Nurr1 receptor = target: T1, mouse Nurr1 receptor (Mus musculus, UniProt Q06219); assay: In vitro activity on N2A cells (8NBRE-luciferase reporter); type: cell-based; details: N2A-8NBRE cells, 24 hours incubation
T1 construct: a cell line (N2A) endogenously expressing the mouse Nurr1 receptor; host or cells: Neuro-2A (N2A) mouse neuroblastoma cells stably transfected with 8NBRE-luciferase
T1 sequence (Q06219 whole entry): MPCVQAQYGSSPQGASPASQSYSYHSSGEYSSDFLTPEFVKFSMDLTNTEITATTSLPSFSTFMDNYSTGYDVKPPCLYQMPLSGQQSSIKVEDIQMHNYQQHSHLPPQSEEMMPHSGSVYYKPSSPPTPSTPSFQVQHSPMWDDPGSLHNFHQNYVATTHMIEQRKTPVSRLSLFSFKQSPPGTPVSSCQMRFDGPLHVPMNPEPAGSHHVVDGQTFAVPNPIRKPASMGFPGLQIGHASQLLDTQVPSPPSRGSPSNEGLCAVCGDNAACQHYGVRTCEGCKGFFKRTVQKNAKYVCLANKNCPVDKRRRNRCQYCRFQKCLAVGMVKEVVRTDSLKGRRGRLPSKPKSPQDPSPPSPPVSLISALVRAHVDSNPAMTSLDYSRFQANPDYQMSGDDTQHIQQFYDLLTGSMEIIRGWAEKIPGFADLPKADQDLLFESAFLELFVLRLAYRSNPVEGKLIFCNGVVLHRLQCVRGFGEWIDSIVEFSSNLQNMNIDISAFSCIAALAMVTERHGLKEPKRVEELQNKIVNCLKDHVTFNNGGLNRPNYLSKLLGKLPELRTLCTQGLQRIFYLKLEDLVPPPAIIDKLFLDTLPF
Description: The compounds according to the invention have formed the subject of pharmacological assays which make it possible to determine their modulatory effect on NOT. Evaluation of the In Vitro Activity on N2A Cells
The activity of the compounds according to the invention was evaluated on a cell line (N2A) endogenously expressing the mouse Nurr1 receptor and stably transfected with the NOT binding response element (NBRE) coupled to the luciferase reporter gene. The assays were carried out according to the procedure described below.
The Neuro-2A cell line comes from a standard commercial source (ATCC). The Neuro-2A clone was obtained, from a spontaneous tumour originating from an A albino mouse strain, by R. J Klebe et al. This Neuro-2A line is subsequently stably transfected with 8NBRE-luciferase. The N2A-8NBRE cells are cultured until confluence in 75 cm^2 culture flasks containing DMEM supplemented with 10% of foetal calf serum, 4.5 g/l of glucose and 0.4 mg/ml of geneticin. After a week of culture, the cells are recovered with 0.25% trypsin for 30 seconds and then resuspended in DMEM without phenol red, containing 4.5 g/l of glucose and 10% of Hyclone delipidized serum, and deposited into transparent-bottom 96-well white plates. The cells are deposited at a rate of 60 000 per well in 75 μl for 24 hours before the addition of the products. The products are applied in 25 μl and incubated for a further 24 hours. On the day of the measurement, an equivalent volume (100 μl) of Steadylite is added to each well and then left for a period of 30 minutes in order to obtain complete cell lysis and maximum signal production. The plates are subsequently measured in a luminescence counter for microplates after having been sealed with an adhesive film. The products are prepared in the form of a stock solution at 10^−2M and then diluted in 100% of DMSO. Each product concentration is prediluted in culture medium before incubation with the cells, thus containing 0.625% final concentration of DMSO.

Structure (SMILES) | EC50 (mouse Nurr1 receptor) [nM] | melting point [°C]
OCc1cccc(-c2ccn3nc(-c4ccc(Cl)cc4)cc3c2)c1 [Compound 1, {3-[2-(4-chlorophenyl)pyrazolo[1,5-a]pyridin-5-yl]phenyl}methanol] | 0.2 | 161 to 164
OCc1ccccc1-c1ccn2nc(-c3ccc(Cl)cc3)cc2c1 [Compound 11, {2-[2-(4-chlorophenyl)pyrazolo[1,5-a]pyridin-5-yl]phenyl}methanol] | 1.7 | 144 to 146
CC(C)(O)c1cccc(-c2ccn3nc(-c4ccc(Cl)cc4)cc3c2)c1 [Compound 2, 2-{3-[2-(4-chlorophenyl)pyrazolo[1,5-a]pyridin-5-yl]phenyl}propan-2-ol] | – | 159 to 161
OCc1ccc(-c2ccn3nc(-c4ccc(Cl)cc4)cc3c2)cc1 [Compound 10, {4-[2-(4-chlorophenyl)pyrazolo[1,5-a]pyridin-5-yl]phenyl}methanol] | – | 214 to 216
OCC1(c2cccc(-c3ccn4nc(-c5ccc(Cl)cc5)cc4c3)c2)CC1 [Compound 4, 1-{3-[2-(4-chlorophenyl)pyrazolo[1,5-a]pyridin-5-yl]phenyl}cyclopropylmethanol] | – | 141 to 143
CC(C)(O)c1cccc(-c2ccn3nc(-c4ccc(F)cc4)cc3c2)c1 [Compound 7, 2-{3-[2-(4-fluorophenyl)pyrazolo[1,5-a]pyridin-5-yl]phenyl}propan-2-ol] | – | 162 to 164
OCc1c(F)ccc(-c2ccn3nc(-c4ccc(Cl)cc4)cc3c2)c1F [Compound 5, {3-[2-(4-chlorophenyl)pyrazolo[1,5-a]pyridin-5-yl]-2,6-difluorophenyl}-methanol] | – | 190 to 192
CC(O)c1cccc(-c2ccn3nc(-c4ccc(Cl)cc4)cc3c2)c1 (stereo not drawn) [Compound 3, 1-{3-[2-(4-chlorophenyl)pyrazolo[1,5-a]pyridin-5-yl]phenyl}ethanol] | – | 93 to 95
CC(O)c1cccc(-c2ccn3nc(-c4ccc(F)cc4)cc3c2)c1 (stereo not drawn) [Compound 8, 1-{3-[2-(4-fluorophenyl)pyrazolo[1,5-a]pyridin-5-yl]phenyl}ethanol] | – | 132 to 134
COCc1cccc(-c2ccn3nc(-c4ccc(Cl)cc4)cc3c2)c1 [Compound 9, 2-(4-chlorophenyl)-5-(3-methoxymethylphenyl)pyrazolo[1,5-a]pyridine] | – | 130 to 132
OCc1cccc(-c2ccn3nc(-c4ccc(F)cc4)cc3c2)c1 [Compound 6, {3-[2-(4-fluorophenyl)pyrazolo[1,5-a]pyridin-5-yl]phenyl}methanol] | – | 141 to 143
OC1CCc2ccc(-c3ccn4nc(-c5ccc(Cl)cc5)cc4c3)cc21 (stereo not drawn) [Compound 12, 6-[2-(4-chlorophenyl)pyrazolo[1,5-a]pyridin-5-yl]indan-1-ol] | 164 | 181 to 183
